# Laboratory results reported in article PMC3976407, “Inhibition of Fatty Acid Binding Proteins Elevates Brain Anandamide Levels and Produces Analgesia” (PLoS ONE, 2014).
# Read-outs that look alike come from different tables or passages of the source.
# Legend:
# FABP7 = FABP7 (Homo sapiens, UniProt O15540); assay: NBD-stearate fluorescence displacement binding
# Method: Inhibitory constant (Ki) values were elucidated utilizing NBD-stearate fluorescence displacement as described previously [9], [31]. The tests were performed in 96-well plates containing inhibitors (0.1 – 50.0 μM), FABP, and NBD-stearate. Fluorescence intensity was measured with a FLUOstar OPTIMA spectrofluorometer with excitation and emission wavelengths of 460 and 544 nm, respectively.
# [1] = test system: locomotor activity in mice; assay: Locomotor activity; assay type: in vivo, mouse; details: 20 mg/kg, i.p., measured 90 min after administration
# Method: […] Locomotor activity was recorded for 5 min by a video camera suspended above the chamber and subsequently scored by an observer blinded to the treatment conditions. A grid crossing was scored when both hind legs of the animal crossed the border of each grid square.
# [2] = Pharmacokinetics: SBFI26 levels in plasma and brain; assay type: in vivo; details: mouse, 20 mg/kg, i.p.; for half-life: ip
# Method: Mice were injected with SBFI26 (20 mg/kg, i.p.) and were subsequently rapidly euthanized by decapitation at the indicated time points. The brain was rapidly removed and submerged in liquid nitrogen while the blood was collected into a K2-EDTA collection tube (Fisher). Plasma was isolated by centrifugation of the blood and 50 μl of the plasma was combined with 150 μl acetonitrile and centrifuged to remove the resulting protein pellet. Subsequently, 50 μl of water was added to 50 μl of the supernatant and 10 μl was injected for analysis into a Thermo TSQ Quantum Access Triple Quadrupole mass spectrometer (ThermoFisher). LC separation was achieved on a Luna C18 (150×2 mm) column. Mobile phase A consisted of 100% H20 while mobile phase B was composed of 100% acetonitrile. The flow rate was 200 μl/min. A linear gradient was used and started at 50% B for 2 min, then ramped to 100% B in 8 min., with a 2 min hold at 100% B. The system was then equilibrated at 50% B for a cycle time of 20 min. The mass spectrometer was operated in the negative ion mode with the high voltage set at −3.5 kV. The sheath pressure was 20 and the capillary was set to 270 °C. Multiple reaction monitoring (MRM) was used with the transition m/z 421 to 277 at 29 eV as the quantitation channel, while m/z 421 to 205 at 17 eV was employed as a conformation channel. SBFI26 quantification was performed using an external calibration curve.
# [3] = test system: brain endocannabinoid levels; assay: Lipid quantification of brain NAEs and 2-AG; assay type: in vivo; details: mouse, 20 mg/kg, i.p.
# Method: Quantification of endogenous NAEs and 2-AG were performed as previously described with minor modifications. Mice were rapidly euthanized by decapitation and their brains flash frozen in liquid nitrogen. The brains were subsequently thawed, weighed, and homogenized in 8 ml of 2∶1∶1 CHCl3:MeOH:Tris (50 mM, pH 8) in the presence of 4 ng d4-PEA, 4 ng d2-OEA, 400 pg d4-AEA, and 40 ng d5-2-AG. Following centrifugation at 4°C, the organic layer was removed and brought up to 8 ml with the same buffer and centrifuged again. The resulting organic layer was dried down with argon and resuspended with 100 μl of 2∶1 CHCl3:MeOH and 10 μl was injected into the Thermo TSQ Quantum Access Triple Quadropole mass spectrometer. LC separation was achieved on a Gemini C18 (50×2 mm×5 μm) equipped with a Gemini C18 SecurityGuard precolumn (4 mm length ×2 mm internal diameter). Mobile phase A consisted of 95∶5% v:v H20:MeOH while mobile phase B was composed of 60∶35∶5 v:v:v i-PrOH:MeOH:H2O and quantification was performed in the positive ion mode with the voltage set at 4 kV. 0.1% formic acid was added to assist in ionization. The sheath pressure was 30 and the capillary was set at 270 °C. The flow rate was 100 μl/min. The gradient started at 0% B and increased to 100% B over 15 min followed by an isocratic gradient of 100% B for 10 min, and was equilibrated for 15 min at 0% B.
# rats subjected to CCI = assay: Rat neuropathic pain model (chronic constriction injury of the sciatic nerve); assay type: in vivo; details: 20 mg/kg i.p.
# Source text: Male Fisher 344 rats were habituated and pre-injury evoked responses were obtained. The Hargreaves test was used to assess thermal hyperalgesia. Briefly, plexiglass enclosures were set atop a plexiglass platform and infrared source set at 50% power located under the platform was used as the heat stimulus (Ugo Basile). A 200 mW, 535 nm diode laser was mounted in an adjustable stand placed beneath the plexiglass platform, and was used as an alternative heat stimulus for some of the animals in this study. The latency time to hind paw lift during heating of the plantar surface was recorded. Five recordings were obtained on each hind paw with at least 2 min rest between measurements. The maximum time for exposure to the infrared or diode laser source was 30.5 s to avoid any possible tissue injury. For mechanical threshold measurements, the animal enclosures rested on a screen with mesh of 0.5 cm spacing. Following acclimation, an electronic von Frey Anesthesiometer (IITC Life Sciences) was applied with increasing pressure to the plantar surface of the hind paw until the animals lifted the hind paw. The number of grams of force applied by the probe to induce withdrawal was recorded. Five recordings were obtained on each hind paw with at least 3 min between measurements. For CCI surgeries, our procedure closely followed that reported previously. Briefly, each animal received an i.p. injection of ketamine/xylazine (75 mg/kg and 10 mg/kg, respectively). The hind leg was surgically prepped and the anesthetized animal placed prone on an sterile towel over a heating pad. The temperature was monitored rectally. A skin incision was made mid-thigh with a medium curved scalpel and then scissors were used to expose the sciatic nerve. Approximately 1 cm of the main trunk proximal to the trifuraction was isolated and 4 strands of 4-0 chromic gut were tied around the nerve ∼ 1 mm apart under magnification. In a modification of the original method, a 2-0 prolene strand was placed between the nerve and the gut to which the suture was tightened. The prolene strand was then removed. This prevented over tightening and reduced subsequent motor paralysis. The muscle layers were then reopposed and sutured, and surgical staples were used to close the skin. On post-injury days 7 through 10, heat and mechanical measurements were obained for the ipsilateral hindpaw of each CCI animal. Immediately following the post-injury measurements, animals were randomized and received i.p. injections of vehicle or 20 mg/kg SBI26 (DMSO:cremophor:sterile saline 1∶1∶2 by volume). Up to 0.8 ml of drug or vehicle was injected. The observer was blinded as to administration of drug or vehicle. Thermal and mechanical measurements were performed at 1 and 4 h post-injection. Data were normalized to pre-injury baseline measurements for each animal.
# FABP7, sequence (O15540 whole entry, species assumed): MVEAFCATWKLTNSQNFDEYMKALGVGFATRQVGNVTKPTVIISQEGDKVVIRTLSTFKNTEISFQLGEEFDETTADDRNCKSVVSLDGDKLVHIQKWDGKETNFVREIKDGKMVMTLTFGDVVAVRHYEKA
smiles,measurement,setting,value
"O=C(O)C1C(c2ccccc2)C(C(=O)Oc2cccc3ccccc23)C1c1ccccc1 (stereo not drawn) [SBFI26, alpha-2,4-diphenylcyclobutane-1,3-dicarboxylic acid mono-1-naphthyl ester]",Ki,FABP7,400 nM
same,Locomotor activity,[1],does not alter
same,half-life,"[2]; brain, read-out: Brain half-life (converted)",~3 h
same,Brain levels relative to plasma levels,[2],lower
same,Time of peak brain level,[2]; brain,within one hour
same,Time of peak plasma level,[2]; plasma,within one hour
same,Time by which levels return to baseline,[2]; plasma and brain,≤ 24 h
same,half-life,"[2]; plasma, read-out: Plasma half-life (converted)",~3 h
same,Brain 2-AG levels,[3]; 90 min,unaffected
same,Brain OEA levels,[3]; 90 min,unaffected
same,Brain PEA levels,[3]; 90 min,unaffected
same,Brain AEA levels,[3]; tissues harvested 90 min after administration,significantly elevated
same,Persistence of the effect on thermal hyperalgesia in CCI rats,rats subjected to CCI,up to 4 hrs
same,Effect on mechanical thresholds in CCI rats,rats subjected to CCI; 1 and 4 h,Neither compound altered
same,Effect on thermal hyperalgesia in CCI rats,rats subjected to CCI; measured 1 and 4 h post-injection,completely reversed
